Data reported in US20200216837A1, “DRUG-TARGET IDENTIFICATION BY RAPID SELECTION OF DRUG RESISTANCE MUTATIONS” (KATHOLIEKE UNIVERSITEIT LEUVEN, priority 2016, published 2020).

What was measured:
[1] = test system: HAP1 cells; test: Cell viability assay of wild-type versus mutagenized drug-resistant cells; format: cell-based, human; settings: for Drug sensitivity of HDR-edited cells carrying NAMPT mutations: NAMPT mutations reinstalled in native locus of parental cells by CRISPR-induced HDR; for Drug sensitivity of surviving colonies after tiling library transduction and drug selection: HAP1 Cas9 cells, FDA_target subpool B with bortezomib 14 days, or investigational library D with KPT-9274; for Drug sensitivity of colonies after Cas9/sgRNA targeting of the resistance hot spot: HAP1 cells, sgRNAs at XPO1 C528, KIF11 D130/A133, ERCC3 S162/Y163, NHEJ repair, 4 drug concentrations for selection; for Drug sensitivity of parental cells with a major protein variant reinstalled by CRISPR/Cas9-mediated HDR: XPO1 C528S,E529V,Q530H,K531I, KIF11 L132del, ERCC3 V166_K167insL in native locus
Method: Cells were transfected with the Neon Electroporation System after resuspension in Buffer R. DNA plasmids expressing the spCas9 or asCpf1 endonuclease and guiding RNA were added to a concentration of 37.5 ng/μL per plasmid and electroporated at 1,400-1,475V with 3 pulses of 10 ms. Two to three days after transfection, cells were treated with the respective drug to select for resistance over 7-14 days. Colonies were imaged with an IncuCyte© ZOOM (Essen Bioscience).
For HDR, a 123-134 bases long ssDNA oligonucleotide (850 ng) was added to the electroporation mixture in addition to the respective sgRNA and spCas9 expressing plasmids. Two days after electroporation, cells were treated with respective drugs for 5 days before imaging with an IncuCyte© ZOOM (Essen Bioscience). Following imaging, the HDR-template transfected cells were grown under drug selection for an additional week before any further experiments were performed.
Cell viability assays were performed by plating 3,000 HAP1, 5,000 HCT 116 or HL-60 cells in 96-well plates containing DMSO or a dilution of the test compound. Cells were incubated for 72 hours at 37° C. and 5% CO2. Cell viability was then assessed with the CellTiter 96® AQueous Non-Radioactive Cell Proliferation Assay (Promega) and colorimetric signals were measured with a Safire2™ (TECAN). Assays were performed in triplicate and each experiment was repeated at least once. Obtained values were adjusted with the background signal and divided by the DMSO control. Relative data values were then visualized and analyzed using a log-based 4 parameter model (GraphPad Prism).
For single guide drug resistance validation assays, 125.000 cells were transfected with Cas9 and the individual sgRNAs using the Neon Electroporation system as described above and plated into 6-well plates. Cells were treated 2-3 days after transfection with the respective compound for a period of 5-7 days, the medium was regularly refreshed and dead cells were washed away before imaging confluency using a live cell analysis system (Essen Bioscience, IncuCyte ZOOM®).

[2] = test system: HAP1 cells stably expressing spCas9 or asCpf1; test: CRISPR mutagenesis scanning drug-target identification screen with tiling sgRNA/crRNA libraries; format: cell-based, human; settings: 30 nM bortezomib, 300 nM KPT-9274 or 2 μM selinexor for 2 weeks
Method: FastQ files obtained after MiSeq sequencing were demultiplexed with the MiSeq Reporter software (Illumina). Demultiplexed and paired reads were trimmed, filtered and then aligned to the reference amplicon in Geneious (v9, Biomatters). To obtain haplotypes present in drug-resistant samples, bam files were analyzed with the CrispRVariants package run in RStudio by defining a 35-50 bp spanning region across the endonuclease cut site, as defined by pre-analysis of localized variants within Geneious. For this purpose, the CrispRVariants “readtotarget” input was run with parameters “upstream.snv” (30) and “downstream.snv” (15) on corresponding paired end sequencing reads to allow for haplotype determination. Haplotype nucleotide sequences were extracted with a small script. Nucleotide sequences were then visualized and mapped to the reference in Geneious v9 (Biomatters) and amino acid variants were determined. For visualization of the spectra of single nucleotide variants, NGS reads were aligned to the reference gene. Nucleotide occurrence frequencies were then determined in R on the aligned NGS reads using the deep SNV Bioconductor package. Sequences containing sgRNA/crRNAs from the lentiviral screens were trimmed from adapter sequences. Individual sgRNA/crRNA sequencing reads were then aligned to the pLCKO-U6-sgRNA vector within Geneious, counted with MaGeCK^18 and visualized in GraphPad Prism.
HAP1 cells stably expressing spCas9 or asCpf1 were resuspended in supplemented IMDM containing 8 μg/mL polybrene and transduced with lentiviral particles containing the desired sgRNA/crRNAs at a MOI of 0.25 (coverage of 5,000× per sgRNA for spCas9) or 0.35 (coverage of 15,000× per crRNA for asCpf1) by spinfection in 12-well plates. The next day cells were transferred to T150 cell flasks and selected with 1 μg/mL puromycin. Then 4 million (ispinesib/selinexor) or 10 million (KPT-9274/bortezomib) cells were harvested for DNA extraction and the remaining cells were treated for a period of 2 weeks with 8 nM ispinesib, 30 nM bortezomib, 300 nM KPT-9274 or 2 μM selinexor. […]

Row | Compound | Drug sensitivity of HDR-edited cells carrying NAMPT mutations [1] | Drug sensitivity of the original KPT-9274 resistant cell pool ([1]; cell pool surviving the library D mutagenesis screen with KPT-9274, compared to wild-type) | Drug sensitivity of surviving colonies after tiling library transduction and drug selection [1] | Target gene identified by enriched guide RNAs and resistance mutations [2] | Drug sensitivity of colonies after Cas9/sgRNA targeting of the resistance hot spot [1] | Drug sensitivity of parental cells with a major protein variant reinstalled by CRISPR/Cas9-mediated HDR [1] | Drug sensitivity of colonies after AsCpf1 tiling crRNA library and drug selection ([1]; HAP1 AsCpf1 cells, 10 genes, 1,100 crRNAs, selinexor 2 μM)
1 | O=C(/C=C/c1cccnc1)NCCCCC1CCN(C(=O)c2ccccc2)CC1 [FK866] | cross-resistant | cross-resistant |  |  |  |  | 
2 | Nc1ccc(/C=C/C(=O)NCc2cc3cc(-c4ccc(C(=O)N5CCC(F)(F)CC5)cc4)cc(-c4ccc(F)cc4)c3o2)cn1 [KPT-9274] | resistant |  | resistant | NAMPT |  |  | 
3 | CC(C)C[C@H](NC(=O)[C@H](Cc1ccccc1)NC(=O)c1cnccn1)B(O)O [bortezomib] |  |  | resistant | PSMB5 |  |  | 
4 | Cc1ccc(C(=O)N(CCCN)[C@@H](c2nc3cc(Cl)ccc3c(=O)n2Cc2ccccc2)C(C)C)cc1 [ispinesib] |  |  |  |  | resistant | resistant | 
5 | O=C(/C=C\n1cnc(-c2cc(C(F)(F)F)cc(C(F)(F)F)c2)n1)NNc1cnccn1 [selinexor] |  |  |  | XPO1 | resistant | resistant | resistant
6 | CC(C)[C@]12O[C@H]1[C@@H]1O[C@]13[C@]1(O[C@H]1C[C@H]1C4=C(CC[C@@]13C)C(=O)OC4)[C@@H]2O [triptolide] |  |  |  |  | resistant | resistant | 
